The values below come from patent EP2961788B1, “NANOPARTICLES STABILIZED WITH NITROPHENYLBORONIC ACID COMPOSITIONS” (priority 2013, dated 2014).

The series concerns BT-474 xenograft tumors. How it is done:
Treatments began on day 1. […] All treatments were freshly prepared and given via intravenous tail vein injection. Injections were standardized at 150 µl per 20 g body weight of mice. […] Tumor sizes were recorded three times a week using caliper measurements (length x width^2/2) and health of the animals was continuously monitored. Animals were euthanized when tumor volumes exceeded 1000 mm^3. Six weeks after beginning of the treatment, animals were euthanized by CO2 asphyxiation.

The mark [1] stands for this setting: 80 mg/kg, once per week for 3 weeks.
Where [2] appears, read: 8 mg/kg, once per week for 3 weeks.

SMILES strings stand for the structures. Read-outs that look alike come from different tables or passages of the source.

As to `CCc1c2c(nc3ccc(OC(=O)N4CCC(N5CCCCC5)CC4)cc13)-c1cc3c(c(=O)n1C2)COC(=O)[C@]3(O)CC` [Irinotecan], under setting [1], the “NTRD (number of treatment related death)” value came out at 1, the “Neuthan (number of animals euthanized due to exceeding tumor size limit of 1000 mm^3)” value is 0, the Nreg to zero is listed as 0 and the “tumor inhibition compared to control group” value was “non-significant tumor inhibition”.
For `CC[C@@]1(O)C(=O)OCc2c1cc1n(c2=O)Cc2cc3ccccc3nc2-1` [CPT, Camptothecin], the “Nend (number of animals surviving to end of study)” value (8 mg/kg (MAP-CPT: CPT basis), i.v. once per week for 3 weeks) is recorded as 8/0. Moreover, under setting [2], the “NTRD (number of treatment related death)” value is on record as 4, the Nreg to zero was 0 and the “tumor inhibition compared to control group” value is recorded as “no tumor inhibition”.
